Assay results taken from US9096643B2, “Cell-protective peptides and uses thereof” (priority 2010, dated 2015).
Where “and” joins values, the source holds several entries; their conditions need not be identical. Identical values can stand only once. No end group written: not given here.

Legend:
Lewis rats [1] = experiment: Subcutaneous implantation of cardiomyocyte/hydrogel constructs and histological assessment
Procedure: (§3) Cardiac constructs were made by encapsulation of neonatal Lewis rat cardiomyocytes in Az-chitosan-QHREDGS or Az-chitosan-RGDS. A total of 2×10^6 cardiomyocytes were resuspended in 15 μL of ice cold cardiomyocytes medium with 30% FBS for at least 10 min. These cells were then encapsulated in 100 μL of the hydrogel in transwell plates and constructs (2 mm thick and 6 mm in diameter) were produced. A total of 8 samples were made for each type of hydrogel, and 4 from each group were implanted, while the other 4 were retained as in vitro controls. Samples were cultured at 37° C. for 5 d before they were implanted in vivo.
(§4) Cardiac constructs described above were inserted subcutaneously into the abdomen of Lewis rats. Four samples were implanted for each type of hydrogel. […] Quantification of total SMA and Factor VIII was performed using ImageScope v10 (Aperio Technologies) and mean intensities were averaged for six fields for each sample and normalized to total area. […] Apoptosis was assessed using a TUNEL assay (Roche Applied Science) following the manufacturer's standard protocol.

[2] = tested on: neonatal rat CMs (heart cells); experiment: Apo-ONE caspase 3/7 assay after serum starvation and taxol on coated surfaces; format: cell-based, rat (Sprague-Dawley); details: serum-starved, overnight taxol, vs control surfaces, FIG. 4
Procedure: Glass coverslips were coated with Az-chitosan, or Az-chitosan conjugated with QHREDGS, RGDS, or a scrambled peptide (DGQESHR). The cells were then seeded (100,000 cells in 50 μL of CM media; seeding density of 88 cells/mm^2) on each surface (N=3), including plain glass as a control, for 15 min. The cells were then supplemented with serum-free media. After 19 hours, 5 μL of taxol (paclitaxel, Sigma), dissolved at 100 μM in DMSO, was added and maintained for 17 hours and 45 min at which time caspase assay was performed. One set of glass surfaces was not exposed to taxol treatment as a negative control.
The Apo-ONE caspase assay (Promega) was performed according to manufacturer's protocol. The cells were permeabilized and lyzed to release the caspases, which are activated in cells undergoing apoptosis. The assay contains rhodamine 110, bis-(N-CBZ-L-aspartyl-L-glutamyl-L-valyl-L-aspartic acid amide; Z-DEVD-R110). Caspase 3 and 7 are known to cleave the peptide DEVD and the leaving group, rhodamine 110 becomes fluorescent when excited with fluorescent light. The amount of fluorescence is proportional to the level of caspase 3/7 activity in the sample. According to the manufacturer's protocol, the caspase substrate was dissolved in a buffer at 1:100. […] The fluorescence of the buffer was read in the fluorometer at an excitation of 485 nm and a cut off of 520 nm. […]

[3] = tested on: neonatal cardiomyocytes encapsulated in chitosan hydrogels; experiment: Functional testing by electrical field stimulation (ET, MCR) of encapsulated cardiomyocytes; format: cell-based, rat
Source text: The electrical function of in vitro samples of neonatal cardiomyocytes encapsulated in chitosan hydrogels for 6 d was established by measuring excitation threshold (ET), the minimum voltage required to pace the encapsulated cells simultaneously, and maximum capture rate (MCR) as previously described, (Radisic, Park et al. 2004), the contents of which are incorporated by reference. The MCR is the maximum stimulation rate at which the encapsulated cardiomyocytes can be induced to beat simultaneously, the encapsulated samples were placed between a pair of carbon electrodes immersed in warm Tyrode solution (Sigma, pH 7.4). The ET was measured by stimulating the samples with square pulses of 2 ms width at a frequency of 1 Hz and increasing the output voltage of the stimulator until ˜90% of the cells in the field-of-view were beating synchronously with the stimulator output. The MCR was measured by setting the output at 15 V, and increasing the frequency until most of the cells in the sample were no longer synchronously beating with the driving signal. All measurements were taken using bright field microscopy. The samples were placed in an environmental chamber at 37° C. for the measurements (N=3/group).

Lewis rats [4] = details: rat, in vivo, sc
Procedure: as §3, §4

human iPS cells BJ1D [5] = experiment: BrdU assay of iPS cell proliferation; format: cell-based; details: 50 μM, 5 passages, FIG. 16
Procedure: (§1) After 5 passages in treatment, human iPS cells were passaged as described above in the presence of 50 μM QHREDGS, 50 μM DGQESHR (Biomatik), or PBS (Lonza) onto MEF plates and grown for 3 days. Cultures were pulsed for 1 hr with 10 μM BrdU (Sigma) and immediately analyzed for immunohistochemistry (see below). Ki67 (Millipore, 1:300) co-staining was used to differentiate MEFs from human iPS cells. All samples were counterstained with DAPI (300 nM, Sigma).

human iPS cells 0901B [6] = experiment: BrdU assay of iPS cell proliferation; format: cell-based; details: 50 μM, 5 passages, FIG. 17
Procedure: as §1

human iPS cells BJ1D [7] = experiment: Pluripotency markers Oct4 and SSEA4 by FACS; format: cell-based; details: 50 μM, five passages, FIG. 14
Procedure: (§2) Analytical flow cytometry was performed on a FACSCalibur flow cytometer (BD Biosciences) as described in Chiang et al. Acta Biomater. 6, 1904-1916 (2010), with an additional permeabilization step with 0.25% Triton-X (Sigma) for 10 min at 4° C. Oct4 (Millipore), SSEA-4 (Developmental Studies Hybridoma Bank) and Ki67 (Millipore) and all secondary antibodies (Jackson ImmunoResearch) were used at 1:100.

human iPS cells 0901B [8] = experiment: Pluripotency markers Oct4 and SSEA4 by FACS; format: cell-based; details: 50 μM, five passages, FIG. 15
Procedure: as §2

[9] = 7 days after subcutaneous implantation

Substance	cardiomyocytes in implant (sarcomeric α-actinin, troponin I staining) (Lewis rats [1]; [9])	percentage of apoptotic cells (TUNEL) (Lewis rats [1]; [9]) [%]	apoptotic cardiomyocytes (troponin I and TUNEL double staining) (Lewis rats [1]; 7 days after subcutaneous implantation, vs RGDS modified hydrogel)	biomaterial degradation and cell infiltration (H&E) (Lewis rats [1]; day 7 after subcutaneous implantation)	percentage of SMA+ myofibroblasts (Lewis rats [1]; vs Az-chitosan-RGDS hydrogel)	caspase-3/7 activation [2]	ET (excitation threshold) ([3]; after six days of cultivation)	MCR (maximum capture rate) ([3]; after six days of cultivation) [pps]	cardiomyocyte contraction under electrical field stimulation ([3]; end of cultivation period)	animal health / external signs of inflammation (Lewis rats [4])	rate of proliferation (BrdU incorporation, 1 hr pulse) (human iPS cells BJ1D [5])	rate of proliferation (BrdU incorporation, 1 hr pulse) (human iPS cells 0901B [6])	expression of Oct4 and SSEA4 (FACS) (human iPS cells BJ1D [7])	expression of Oct4 and SSEA4 (FACS) (human iPS cells 0901B [8])
Az-chitosan-QHREDGS: QHREDGS peptide covalently conjugated to Az-chitosan by EDC chemistry (also: covalently conjugated to Az-chitosan by EDC chemistry, site not given here)	larger areas of cardiomyocytes	~1.5	fewer apoptotic cardiomyocytes	less cell infiltration	significantly higher percentage of SMA+ myofibroblasts	significantly lower levels of caspase-3/7 activation	7.0 ± 0.4; V and 9.2 ± 0.6 V	4.3 ± 0.1	beat synchronously	no external signs of inflammation				
QHREDGS (angiopoietin 1 peptide)											remained the same	remained the same	comparable to both PBS and DGQESHR scrambled peptide controls	comparable to both PBS and DGQESHR scrambled peptide controls
